Usually IC50 stands for the concentration needed to halve the response being measured. By inhibition is commonly meant how much of the control response was suppressed. The low end stands for a weak effect, the high end for a strong effect.

One compound from article PMC12337082 (Journal of Biochemical and Molecular Toxicology, 2025) can be followed below.

Assay [1] deals with MCF‐7. Put plainly: MTT cell viability assay, MCF‐7. As to conditions: for IC50: Homo sapiens, MCF7, MTT. It counts as cell-based, human. Background: Tetrazolium assays rely on reduction of a dye to a coloured formazan, in cell work by metabolically active cells.
The next assay relates to COX‐2. The assay is described as follows: Western blot COX‐2 protein expression, MDA‐MB‐231. It counts as cell-based, human. As to conditions: 24 h. As to the method: Total protein levels were measured using the Take3 Multi‐Volume Plate (Synergy H1, BioTek Instruments Inc., Vermont, USA). In accordance with the classical protocol, transferred proteins were exposed to the following primary antibodies: Beta‐actin (NB600‐501, Novus Biologicals), Bax (SPM336, NBP2‐32809), Bcl‐2 (100/D5, NBP2‐15200), cleaved PARP (194C1439, NBP2‐27335), and COX‐2 (D‐12:sc‐166475, Santa Cruz). The bands were visualized with chemiluminescent HRP substrates (Western Bright ECL‐Advansta, K‐12045‐050). Using a chemiluminescence imaging system (Celvin S, BioStep), the relative quantification was done based on the level of β‐actin proteins.
A general note: Immunoblotting shows a protein as a band on a membrane.

A further assay concerns L‐929. The assay is described as follows: Mitochondrial membrane potential (JC‐1) apoptosis assay, L‐929. In kind it is cell-based, mouse. As to conditions: L‐929, 50 μM, 24 h, MMP assay. As to the method:
(§1) Apoptosis was also investigated by evaluating mitochondrial membrane potential changes (MMP assay). MCF‐7, MDA‐MB‐231, and L‐929 cells were stained with JC‐1 dye according to the manufacturer's protocols (JC‐1 MMP Assay Kit, KA1324, Abnova). The apoptotic to healthy cell ratio was calculated using absorbances collected from two different fluorescence channels (535/595 for healthy cells, 485/535 for apoptotic cells) (Synergy H1, Biotech Instruments Inc., Vermont, USA).

For a further assay, the system named is PGE2 release. Put plainly: PGE2 ELISA, MCF‐7. In kind it is cell-based, human. As to conditions: Homo sapiens, MCF7; MCF‐7, 50 µM, 24 h. As to the method:
PGE2 ELISA kit (ENZO, ADI‐900‐001) was used to determine prostaglandin synthesis levels. MCF‐7 and MDA‐MB‐231 breast cancer cells were cultured at a density of 1 × 10^6 cells/well in a 6‐well culture dish. […] Following 24 h of incubation, the medium was replaced with a fresh one, 10 µM arachidonic acid was added, and it was further incubated for 1 h. The PGE2 levels were determined according to the kit protocol.
A general note: An ELISA detects its analyte on a solid surface through an enzyme-linked reagent.

Assay [2] concerns MCF‐7. Put plainly: Mitochondrial membrane potential (JC‐1) apoptosis assay, MCF‐7. In kind it is cell-based, human. As to conditions: MCF‐7, 50 μM, 24 h, MMP assay. As to the method: as §1

For the compound `CCc1cccc2c3c([nH]c12)C(CC)(CC(=O)N/N=C/c1ccc(OC)cc1)OCC3` (racemic) [SGK 206, 2‐(1,8‐Diethyl‐1,3,4,9‐tetrahydropyrano[3,4‐b]indole‐1‐yl) acetic acid[(4‐methoxyphenyl)methylene]acetohydrazide], the IC50 came out at 37 ± 1.74 µM in the assay on MCF‐7 [1] (MCF‐7, 24 h); 34 ± 5.7 µM in the assay with MCF‐7 [1] (MCF‐7, 48 h); 26 ± 0.66 µM with MCF‐7 [1] (MCF‐7, 72 h). The “Selectivity index (SI)” value came out at 1.93 in the assay with MCF‐7 [1] (MCF‐7 in comparison to L‐929, 24 h); 1.4 in the assay on MCF‐7 [1] (MCF‐7 in comparison to L‐929, 48 h); 1.91 in the assay with MCF‐7 [1] (MCF‐7 in comparison to L‐929, 72 h). The “Decrease in COX‐2 protein expression compared to the control group” value in the assay with COX‐2 (MDA‐MB‐231, 50 µM) is 16%; in the assay with COX‐2 (MDA‐MB‐231, 75 µM) it was 37%. The “Increase in apoptosis compared to the control group” value was 8% in the assay on L‐929 and 48% in the assay on MCF‐7 [2]. The inhibition at 50 µM with PGE2 release turned out to be 90%.
